# Source: patent publication US20080261955A1, “Use of Pharmaceutical Compositions of Lofepramine for the Treatment of Adhd, Cfs, Fm and Depression” (priority 2004, published 2008)
# Where two headings read alike, the source gives them in different places.
# Experiments:
# [1] = tested on: ADD (as defined in DSM III); conditions: 31 patients treated with 4.6 mg/kg, children and adolescents; cited from earlier work
# [2] = desipramine treatment; cited from earlier work
# [3] = fatal poisoning / overdose; cited from earlier work
# [4] = tested on: ECG interval; conditions: rats infused with the antidepressant; cited from earlier work
# [5] = tested on: ADHD; assay: Two large well-controlled studies of atomoxetine, CAARS scores; format: in vivo, human; conditions: overall
# Description: In the second study, these improvements were 30.1% vs. 19.6%, respectively. Overall these two studies have indicated a placebo response of about 20% and difference between active and placebo of about 10%. Moreover, atomoxetine is not a stimulant, a point that provides an effective marketing tool for this drug.
# [6] = tested on: ADHD; conditions: cited from earlier work
# [7] = tested on: hyperactivity (ADHD); conditions: doses as low as 75 mg/day; cited from earlier work
# [8] = tested on: serotonin synthesis in the brain; assay: Serotonin synthesis in the brain
# [9] = Sedation; conditions: in vivo
# [10] = tested on: noradrenaline reuptake versus serotonin (5HT) reuptake; assay: NA:5HT relative potencies based on Ki data (Bolden-Watson and Richelson); format: biochemical; conditions: basis not stated
# Description: The selectivity a drug for various receptors may be compared by use of comparative Ki's and not comparative IC 50 values. (Bolden-Watson, C and Richelson, E., Life Sci, (52), 1993, 1023-1029), which is hereby incorporated by reference.
# [11] = tested on: Chronic Fatigue Syndrome; assay: Example 3: lofepramine in Chronic Fatigue Syndrome patients, cross-over design; format: in vivo, human; conditions: 44 patients, doses up to 210 mg/day over 26 weeks
# Procedure: Forty-four patients meeting the criteria for Chronic Fatigue Syndrome were recruited in a cross-over design. […] Patients were administered lofepramine at doses up to 210 mg/day over the 26 weeks of the study. Patients were assessed using the FibroFatigue Scale (interview scale) and the CDR battery of cognitive tests (computer based assessment of cognition). Other assessments included HADS and Clinical Global Improvement (CGI). Four CDR assessments and 9 Fibrofatigue assessments were carried out.
# [12] = biological target: dopamine D2 receptor (Homo sapiens, UniProt P14416); assay: Activity at the dopamine D2 receptor
# Sequence of dopamine D2 receptor (P14416 whole entry, species assumed): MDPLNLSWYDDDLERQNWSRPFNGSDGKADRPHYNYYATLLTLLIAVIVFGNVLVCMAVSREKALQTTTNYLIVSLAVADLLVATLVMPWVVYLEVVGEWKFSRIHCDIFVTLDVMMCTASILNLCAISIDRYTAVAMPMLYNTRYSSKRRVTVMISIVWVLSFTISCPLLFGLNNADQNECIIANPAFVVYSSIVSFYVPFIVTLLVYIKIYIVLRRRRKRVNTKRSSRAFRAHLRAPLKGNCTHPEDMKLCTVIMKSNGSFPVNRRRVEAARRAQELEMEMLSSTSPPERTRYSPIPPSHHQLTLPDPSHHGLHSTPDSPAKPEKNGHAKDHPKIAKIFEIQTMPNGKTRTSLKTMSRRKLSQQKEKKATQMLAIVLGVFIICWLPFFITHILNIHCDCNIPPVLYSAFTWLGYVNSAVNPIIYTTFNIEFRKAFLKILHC
# [13] = tested on: DSM-IV ADHD; assay: Example 1: case reports of ADHD patients on lofepramine; format: in vivo, human; conditions: for behaviour: child; for general behaviour and concentration: person
# Procedure: Patient is a person with a diagnosis of DSM-IV ADHD. Their education was severely impacted by an inability to sustain attention for any length of time and they were also very disruptive in class. Their inability to sustain attention was causing difficulty at work. They were referred by their primary care physician. They were commenced on lofepramine 70 mg twice daily. […] The dose of lofepramine was increased to 70 mg three times daily. […] Within 48 hours their concentration deteriorated and they were once again in trouble at work. A week later the medication was recommenced and they have now remained well for approximately 4 months. They are performing effectively at work and their parents are happy with the situation. A child had been on methylphenidate for 2 years which was prescribed for ADHD characterised by poor concentration and impulsive behaviour. They stopped taking the medication and deteriorated. When they attended the clinic they were commenced on lofepramine 70 mg twice daily. […] This has been sustained for 4 months.
# [14] = toxic levels similar to that found in the SSRI's
# [15] = tested on: ADHD; assay: Example 2: lofepramine versus placebo in adult patients with ADHD (CAARS); format: in vivo, human; conditions: 20 adult patients, oral 140 to 280 mg/day, 3 months
# Procedure: A study was carried out to access the efficacy of lofepramine compared to placebo in 20 adult patients with ADHD at a single study centre. Active treatment was for 3 months. Patients with DSM-IV diagnosis of ADHD were recruited. Patients were assessed using the patient-rated Connors Adult ADH Rating Scales (CAARS). Initially, there was a single blind placebo period between day 0 and week 3, and patients who responded to placebo were withdrawn. Oral administration of lofepramine (140 mg/day) was commenced from week 3 onwards. Patients showing little response to this dose and tolerable side effects were titrated upwards to 210 mg/day and then to 280 mg/day.
# [16] = tested on: Hypothalamic-Pituitary-Adrenal axis; assay: HPA axis activity in CFS; format: in vivo, human; conditions: along with symptomatic relief
# Description: While not being bound by any one mechanisms of action, previous work by one of the co-inventors here, has supported the evidence that there is Hypothalamic-Pituitary-Adrenal axis under activity in CFS patients. (Scott […] and […]; Acta Psychiatr Scand 1998 June 97: 450-7).
structure (smiles),measurement,setting,value
CNCCCN1c2ccccc2CCc2ccccc21 [desipramine],patients with a significant response,[1],around 70%
same,"diastolic blood pressure, heart rate and ECG conductance",[2],asymptomatic and generally small increases
same,fatalities per million prescriptions,[3],200.9 per million prescriptions
same,effect on ECG interval,[4],prolong the ECG interval
CNCC[C@@H](Oc1ccccc1C)c1ccccc1 [atomoxetine],difference between active and placebo in reduction of CAARS scores,[5],about 10%
same,mean reduction of CAARS scores,"[6]; first study, placebo 18.1%",28.3%
same,mean reduction of CAARS scores,"[6]; second study, placebo 19.6%",30.1%
CN(C)CCCN1c2ccccc2CCc2ccccc21 [imipramine],time to begin to reduce hyperactivity,[7],3 to 10 days
same,effect on ECG interval,[4],prolong the ECG interval
COc1ccc(C(CN(C)C)C2(O)CCCCC2)cc1 (stereo not drawn) [venlafaxine],fatalities per million prescriptions,[3],13.2 per million prescriptions
CN(C)CCC=C1c2ccccc2CCc2ccccc21 [amitriptyline],effect on ECG interval,[4],prolong the ECG interval
CN(CCCN1c2ccccc2CCc2ccccc21)CC(=O)c1ccc(Cl)cc1 [lofepramine],serotonin synthesis in the brain,[8],up-regulate serotonin synthesis in the brain
same,sedation,[9],does not induce sedation
same,NA:5HT ratio relative to that of desipramine,[10],about four
same,NE:5-HT ratio compared with milnacipran,[10],higher than that of milnacipran
same,"FibroFatigue Scale, CDR cognitive tests, HADS and CGI",[11],significant improvement on all scales
same,activity at the D2 receptor,[12],potent activity
same,behaviour,"[13]; 70 mg three times daily, sustained for 4 months",major improvement
same,behaviour,[13]; 70 mg twice daily,No immediate improvement
same,side-effects,[13]; patient report,no side-effects
same,general behaviour and concentration,"[13]; 70 mg three times daily, sustained for 3 months",continued improvement
same,general behaviour and concentration,"[13]; 70 mg twice daily, after 1 week",significant improvement
same,cardiotoxicity,[14],very low cardiotoxicity
same,CAARS scores versus placebo,[15],significant benefit over placebo
same,fatalities per million prescriptions,[3],1.3 per million prescriptions
same,HPA activity,[16],induces upregulation of HPA activity
same,effect on ECG interval,[4],does not
